Key:
[1] = preclinical evaluations, including juvenile toxicology studies; cited from earlier work
[2] = test system: RSV-A (panel of 10 clinical strains); test: In vitro susceptibility of RSV by plaque assay, RSV-A; format: cell-based; conditions: human respiratory syncytial virus
Method: (§1) Previous RSV challenge studies achieved antiviral efficacy with peripheral blood trough exposure levels over 3× the protein binding-adjusted in vitro EC90 ([12]). Based on the phase 1 PK data, this level of exposure was predicted to be achieved on or after the first dose in the majority of subjects with a 200-mg dose and to be met or exceeded on or after the first dose in all subjects with a 350-mg dose. The in vitro EC90 was determined using a panel of clinical isolates of RSV (Table S7).
(§2) EC50 range (nM) EC90 range (nM)
(§3) EC50 and EC 90 were determined by plaque assay.
(§4) EC50, 50% effective concentration; EC90, 90% effective concentration; RSV, respiratory

RSV-A clinical isolates = test system: RSV-A clinical isolates; parameters: method as in ref 16 = [16]; 16. Cockerill GS , Bedernjak A , Brookes D , Dowey R , Harland R , Johnson SM , Mathews N , Paradowski M , Peeples M , Scott C , Steadman M , Taylor G , Thom M , Thomas E , Ward SE , Watterson D , You; conditions: n = 20 isolates; cited from earlier work
[3] = test system: RSV-B (panel of 10 clinical strains); test: In vitro susceptibility of RSV by plaque assay, RSV-B; format: cell-based; conditions: human respiratory syncytial virus
Method: as §1, §2, §3, §4

[4] = 76 healthy adult males; single and multiple ascending dose; cited from earlier work
RSV-A Memphis-37b = test: RSV human challenge study: disease severity (total symptom score, nasal mucus weight); format: in vivo
Method: Subjects were screened outside the RSV season for eligibility, including measurement of RSV-A Memphis-37b-specific neutralizing antibody titer, ≤90 days before virus challenge. Eligible subjects were admitted to the quarantine unit on day −2 or day −1 and were inoculated intranasally on day 0 with the challenge virus, RSV-A Memphis-37b (4 log10 PFU/ml, given as one 0.4-ml installation per naris), as previously described ([26]). Nasal wash sampling every 12 h for confirmation of RSV infection by qualitative integrated cycler PCR ([12], [19]) began on the morning of day 2. Treatment began 12 h (±1 h) after collection of a nasal wash sample confirming RSV infection or on the evening of day 5 if RSV infection remained unconfirmed by the morning of day 5.
The study comprised two consecutive cohorts. […] Subjects were discharged on day 12 if nasopharyngeal swab samples tested negative by RSV rapid antigen assay (QuickVue RSV test; Quidel, San Diego, CA, USA). If such tests were positive or if a subject remained symptomatic, quarantine was extended to allow further observation. All subjects were evaluated on day 28 (±3 days).
Twice-daily collection of nasal wash samples allowed measurement of viral load via RT-qPCR and quantitative culture. RT-qPCR results were reported as PFUe/ml when the standard curve included in each assay contained a known infectious amount (PFU) of RSV, as described previously ([30]). Subjects reported the occurrence and severity of symptoms three times daily using a 10-item subject symptom diary card as previously reported ([12]) (see Supplemental Methods). Throughout the quarantine period, used tissues were collected and weighed daily, and total nasal mucus weight was recorded. PK assessments were based on venous blood samples. Safety assessments included measurement of vital signs, standard 12-lead ECG recordings, spirometry, a complete physical examination, and a respiratory-directed physical examination. AEs were monitored daily, coded according to the Medical Dictionary for Regulatory Activities Version 20.0, and graded according to the National Cancer Institute Common Terminology Criteria for Adverse Events Version 4.0 (see Supplemental Methods for further details).
The primary efficacy endpoint was AUC for RSV viral load, as measured by RT-qPCR, in nasal wash samples taken twice daily from just before the first dose until discharge (day 12). Viral load data were provided as log10 PFUe/ml; AUC (log10 PFUe/ml · h) was calculated using the trapezoid rule. Secondary efficacy endpoints related to viral load were AUC of RSV viral load, as assessed by quantitative culture, and the following measures, which were each assessed using both RT-qPCR and quantitative culture: peak viral load, time to peak viral load, and time to <1 log10 (for RT-qPCR) or undetectable (for quantitative culture) viral load (considered to occur at the first confirmed undetectable assessment after which no further virus was detected). Secondary efficacy endpoints related to clinical symptoms included AUC total symptom score; peak total symptom score; time to peak total symptom score; and the total weight of nasal mucus produced. Other secondary outcomes were safety, PK, and sequence detection of viral variants (see Supplemental Methods).
All statistical analyses were performed using two-sided testing. Student’s t tests were performed for normally distributed data with a constant variance; otherwise, the Satterthwaite t test or nonparametric tests were used. For the mucus weight analysis, the least-squares mean was calculated from a mixed model with repeated measures, adjusted for baseline mucus weight and treatment group as covariates and subject as a random effect.

In the case of `NCc1ccc2c(c1)nc(CN1C(=O)C3(CC3)c3ccc(F)cc31)n2CCCC(F)(F)F` [RV521], the Safety profile [1] is listed as “good safety profile”, the EC50 ([2]; read-out: EC50 range) is listed as 0.3 to 1 nM and the EC90 ([2]; read-out: EC90 range) is listed as 2.5 to 5.6 nM. The IC50 (RSV-A clinical isolates) was 1.4 nM, the EC50 ([3]; read-out: EC50 range) was 0.4 to 1.4 nM and the EC90 ([3]; read-out: EC90 range) was 2 to 10.4 nM. For the same compound, the Tolerability [4] was “well tolerated”, the “AUC of total symptom score, mean (SE)” value (RSV-A Memphis-37b; 200 mg, ITT-A) was 117.9 (35.26) score x hours and the “AUC of total symptom score, reduction in mean vs placebo” value (RSV-A Memphis-37b; 200 mg, ITT-A) was 73.06%. For the same compound, the “Daily nasal mucus weight, LS mean” value (RSV-A Memphis-37b; 200 mg, ITT-A) was 0.32 g, the “Peak total symptom score, mean (SE)” value (RSV-A Memphis-37b; 200 mg, ITT-A) was 2.5 (0.49) and the “Time to peak total symptom score, mean (SE)” value (RSV-A Memphis-37b; 200 mg, ITT-A) was 1.82 (0.67) days. The “Time to resolution from peak total symptom score, mean (SE)” value (RSV-A Memphis-37b; 200 mg, ITT-A) was 2.73 (0.39) days, the “AUC of total symptom score, mean (SE)” value (RSV-A Memphis-37b; 200 mg, ITT-A, fixed time period of 6.5 days) was 117.41 (35.26) score x hours and the “AUC total symptom score, mean (SE)” value (RSV-A Memphis-37b; 200 mg, ITT-I) was 111.35 (33.88) score × hours. The “Daily nasal mucus weight, LS mean” value (RSV-A Memphis-37b; 200 mg, ITT-I) was 0.33 g, the “Time to peak total symptom score, mean (SE)” value (RSV-A Memphis-37b; 200 mg, ITT-I) was 2.08 (0.68) days and the “AUC of total symptom score, mean (SE)” value (RSV-A Memphis-37b; 200 mg, ITT-I, fixed time period of 6.5 days) was 111.35 (33.88) score x hours. The “AUC of total symptom score, mean (SE)” value (RSV-A Memphis-37b; 350 mg, ITT-A) was 92.98 (26.81) score x hours, the “AUC of total symptom score, reduction in mean vs placebo” value (RSV-A Memphis-37b; 350 mg, ITT-A) was 78.75% and the “Daily nasal mucus weight, LS mean” value (RSV-A Memphis-37b; 350 mg, ITT-A) was 0.26 g. The “Peak total symptom score, mean (SE)” value (RSV-A Memphis-37b; 350 mg, ITT-A) was 2.1 (0.49), the “Time to peak total symptom score, mean (SE)” value (RSV-A Memphis-37b; 350 mg, ITT-A) was 1.26 (0.55) days and the “Time to resolution from peak total symptom score, mean (SE)” value (RSV-A Memphis-37b; 350 mg, ITT-A) was 2.44 (0.43) days. The “AUC of total symptom score, mean (SE)” value (RSV-A Memphis-37b; 350 mg, ITT-A, fixed time period of 6.5 days) was 92.98 (26.81) score x hours, the “AUC total symptom score, mean (SE)” value (RSV-A Memphis-37b; 350 mg, ITT-I) was 82.41 (24.45) score × hours and the “Daily nasal mucus weight, LS mean” value (RSV-A Memphis-37b; 350 mg, ITT-I) was 0.27 g. For the same compound, the “Time to peak total symptom score, mean (SE)” value (RSV-A Memphis-37b; 350 mg, ITT-I) was 1.56 (0.57) days and the “AUC of total symptom score, mean (SE)” value (RSV-A Memphis-37b; 350 mg, ITT-I, fixed time period of 6.5 days) was 82.41 (24.45) score x hours.
